Biological target: T1, HTR2C (Homo sapiens, UniProt P28335)
T1 construct: purchased Promega (in-house HiBiT-GPCR construct library, NanoBRET)
T1 sequence (P28335 33-458): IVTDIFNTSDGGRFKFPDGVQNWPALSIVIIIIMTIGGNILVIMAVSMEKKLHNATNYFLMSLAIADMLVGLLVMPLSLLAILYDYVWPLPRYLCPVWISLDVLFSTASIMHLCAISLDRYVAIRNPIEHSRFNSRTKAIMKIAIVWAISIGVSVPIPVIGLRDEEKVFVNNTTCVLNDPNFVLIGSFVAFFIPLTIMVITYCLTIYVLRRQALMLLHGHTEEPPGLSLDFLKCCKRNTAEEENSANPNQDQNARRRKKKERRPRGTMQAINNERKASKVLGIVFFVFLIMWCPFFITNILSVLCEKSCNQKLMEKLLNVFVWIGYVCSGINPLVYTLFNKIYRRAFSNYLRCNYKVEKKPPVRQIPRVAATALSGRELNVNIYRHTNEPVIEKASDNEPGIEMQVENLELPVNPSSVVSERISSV
Experiment: NanoBRET screen HiBiT-HTR2C in HEK293
Assay type: binding
Method: Each tracer candidate was screened across the entire library of HiBiT-GPCR constructs using NanoBRET as the detection modality. As depicted in Figure 4A, the specificity of interactions was evaluated through decrease in BRET due to competitive displacement of a bound tracer by excess parental compound. Each tracer was analyzed for binding to each HiBiT-GPCR fusion in the absence and in the presence of competing parental compound. Briefly, HEK293 cells were transfected with HiBiT-GPCR constructs diluted into promoterless DNA to reduce expression and maximize translocation to the cell surface. Each tracer candidate was then screened at concentrations of 1 μM and 0.1 μM across cells expressing these fusions. Cells were treated for 1.5 h with tracer either alone or in the presence of 20 μM competing parental compound (i.e., control). BRET was measured upon addition of purified LgBiT and subsequent complementation with HiBiT genetically fused to a GPCR. The specificity of interactions was assessed through a decrease in BRET signal due to competitive displacement of the bound tracer. To further gauge the robustness of these interactions, the fold response over the control (i.e., BRETtracer/BRETcontrol) was calculated. We chose a 1.5-fold response, which translates to ≥7-fold signal over noise as the minimal threshold required to score an interaction as positive.
HiBiT-GPCR DNA constructs were diluted in 10 mM Tris pH 8 to a final concentration of 0.01 μg/μL, arrayed in 96-well plates and stored at −20 °C. For transfection, HEK293 cells were suspended in Opti-MEM (without phenol red) supplemented with 2% fetal bovine serum (Seradigm) and 100 units/mL penicillin–streptomycin (Gibco) at a final concentration of 220,000 cells/mL and dispensed into white 96-well plates at 90 μL/well. Subsequent transfections and screens were carried using an Agilent Bravo Automated Liquid Handling Platform. First, the 96-well HiBiT DNA arrays were diluted 25-fold in Opti-MEM (without serum or phenol red) to a final concentration of 0.0004 μg/μL and 20 μL of the diluted DNAs were transferred into new 96-well plates. Next, promoterless carrier DNA (1 μg/μL) was diluted 25-fold (0.04 μg/μL) and then dispensed into the diluted arrays at 20 μL/well. Following brief mixing, Viafect transfection reagent (Promega) diluted 16-fold into Opti-MEM was dispensed into the plates at 40 μL/well. After mixing by pipetting, plates were incubated for 10 min on the pipetting station deck. The DNA-transfection reagent complexes were then added to plates containing cells. To facilitate the screen, 10 μL of DNA-transfection reagent complexes were added in duplicates to the top 4 and bottom 4 rows, resulting in two identical 48-well arrays per plate. Plates with transfected cells were incubated for 18–20 h at 37 °C/5% CO2. A screen of each tracer across the entire library using two different concentrations requires duplicate plates of transfected cells. Depending on the number of tracers being screened, transfections can be scaled up using the same ratios. The next day, for each tracer, four 20× screening solutions in tracer dilution buffer (Promega) were prepared: two duplicates at final concentration of 20 μM and two duplicates at a final concentration of 2 μM. […] The four resulting solutions were diluted 4-fold in Opti-MEM without serum or phenol red to generate 5× solutions (5 µM and 0.5 µM tracer +/− 100 μM competing compound). To screen the library, a BioTek MultiFlo FX liquid dispenser was used to dispense 22.5 µL of tracer solution to the top 4 rows and 22.5 µL tracer + competing compound solution to the 4 bottom rows. Plates were briefly mixed on an orbital shaker and incubated for 1.5 h at room temperature. […] Plates were briefly mixed on an orbital shaker and incubated for 15 min to allow complementation.

Row | Structure (SMILES) | NanoBRET Fold Response (HTR2C, tracer 0.1μM) | NanoBRET Fold Response (HTR2C, tracer 1μM) | further results
1 | CCOC(=O)c1cc(C#N)c(N2CCC(C(=O)NS(=O)(=O)Cc3ccccc3/C=C/C(=O)NCCNC(=O)CCc3ccc4n3[B-](F)(F)[N+]3=C(c5ccc[nH]5)C=CC3=C4)CC2)nc1C [AZD1283-1-NB590] | – | – | NanoBRET Fold Response (HTR2C, 0.1μM): 0.95; NanoBRET Fold Response (HTR2C, 1μM): 1.04
2 | N#CN/C(=N\CCNC(=O)c1ccc(N)cc1)NCCCOc1cccc(CN2CCCCC2)c1 [Aminopotentidine (unmodified)] | – | – | NanoBRET Fold Response (HTR2C, other tracers/Aminopotentidine (unmodified), 0.1μM): 1.48; NanoBRET Fold Response (HTR2C, other tracers/Aminopotentidine (unmodified), 1μM): 1.66
3 | N#CN=C(NCCCOc1cccc(CN2CCCCC2)c1)NCCNC(=O)CCOCCOCCOCCOCCNC(=O)CCc1ccc2n1[B-](F)(F)[N+]1=C(c3ccc[nH]3)C=CC1=C2 [Aminopotentidine-2-NB590] | 1.01 | 1.04 | –
4 | CN(C)CCC=C1c2ccccc2CCc2ccc(C(=O)NCCNC(=O)CCOCCOCCOCCOCCNC(=O)CCc3ccc4n3[B-](F)(F)[N+]3=C(c5ccc[nH]5)C=CC3=C4)cc21 [Amitriptyline-a-2-NB590] | – | – | NanoBRET Fold Response (tracer at 1μM): 1.80
5 | CN(C)CCC=C1c2ccccc2CCc2ccc(C(=O)NCCNC(=O)CCOCCOCCOCCOCCNC(=O)CCc3ccc4n3[B-](F)(F)[N+]3=C(c5ccc[nH]5)C=CC3=C4)cc21 [Amitriptyline-b-2-NB590] | – | – | NanoBRET Fold Response (tracer at 0.1μM, listed as amitriptyline-b-2-NB590): 1.74; NanoBRET Fold Response (tracer at 1μM, listed as amitriptyline-b-2-NB590): 2.18
6 | CN(CCC=C1c2ccccc2CCc2ccccc21)C(=O)CCOCCOCCOCCOCCNC(=O)CCc1ccc2n1[B-](F)(F)[N+]1=C(c3ccc[nH]3)C=CC1=C2 [Amitriptyline-e-2-NB590] | – | – | NanoBRET Fold Response (tracer at 1μM): 1.03
7 | COc1ccc2c(n1)c(CCNC(C)=O)cn2CCNC(=O)CCc1ccc2n1[B-](F)(F)[N+]1=C(c3ccc[nH]3)C=CC1=C2 [Azamelatonin-1-NB590] | – | – | NanoBRET Fold Response (0.1μM tracer): 0.91; NanoBRET Fold Response (1μM tracer): 0.91
8 | COc1ccc2[nH]c(-c3ccc(CNC(=O)CCOCCOCCOCCOCCNC(=O)CCc4ccc5n4[B-](F)(F)[N+]4=C(c6ccc[nH]6)C=CC4=C5)cc3)c(CCNC(C)=O)c2n1 [AzomelatoninICO9-2-NB590] | – | – | NanoBRET Fold Response (0.1μM tracer): 1.02; NanoBRET Fold Response (1μM tracer): 1.10
9 | O=C(CCOCCOCCOCCOCCNC(=O)CCc1ccc2n1[B-](F)(F)[N+]1=C(c3ccc[nH]3)C=CC1=C2)NCCCN1CCN(C2=Nc3cc(Cl)ccc3Nc3ccccc32)CC1 [Clozapine-a-2-NB590] | – | – | NanoBRET Fold Response (HTR2C, 0.1μM tracer): 1.89; NanoBRET Fold Response (HTR2C, 1μM tracer): 3.22
10 | O=C(CCOCCOCCOCCOCCNC(=O)CCc1ccc2n1[B-](F)(F)[N+]1=C(c3ccc[nH]3)C=CC1=C2)NCCCN1CCN(C2=Nc3ccccc3Oc3ccc(Cl)cc32)CC1 [Loxapine-a-2-NB590] | 1.60 | 1.62 | –
11 | COc1ccccc1N1CCN(CCCCN2C(=O)c3ccc(CNC(=O)CCOCCOCCOCCOCCNC(=O)CCc4ccc5n4[B-](F)(F)[N+]4=C(c6ccc[nH]6)C=CC4=C5)cc3C2=O)CC1 [NAN-190-2-NB590] | 1.00 | 1.14 | –
12 | COc1ccccc1N1CCN(CCCCN2C(=O)c3ccc(CNC(=O)CCOCCNC(=O)c4ccc(CNC(=O)CCc5ccc6n5[B-](F)(F)[N+]5=C(c7ccc[nH]7)C=CC5=C6)cc4)cc3C2=O)CC1 [NAN-190-3-NB590] | 1.04 | 1.06 | –
13 | O=C(CCc1ccc2n1[B-](F)(F)[N+]1=C(c3ccc[nH]3)C=CC1=C2)NCc1ccc(C(=O)NCCOCCC(=O)N[C@@H]2CC[C@@]3(O)[C@H]4Cc5ccc(O)c6c5[C@@]3(CCN4CC3CC3)[C@H]2O6)cc1 [Naltrexone-3-NB590] | 0.79 | 1.03 | –
14 | Cc1cc2c(s1)Nc1ccccc1N=C2N1CCN(CCCNC(=O)CCOCCOCCOCCOCCNC(=O)CCc2ccc3n2[B-](F)(F)[N+]2=C(c4ccc[nH]4)C=CC2=C3)CC1 [Olanzapine-a-2-NB590] | 1.54 | 1.22 | –
15 | O=C(CCc1ccc2n1[B-](F)(F)[N+]1=C(c3ccc[nH]3)C=CC1=C2)NCc1ccc(C(=O)NCCOCCOCCNCC(O)COc2cccc3ccccc23)cc1 (centres unmarked) [Propranolol-3-NB590] | – | – | NanoBRET Fold Response (HTR2C, 0.1μM): 1.22; NanoBRET Fold Response (HTR2C, 1μM): 1.21
16 | O=C(CCc1ccc2n1[B-](F)(F)[N+]1=C(c3ccc[nH]3)C=CC1=C2)NCCOCCOCCNC(=O)OCCOCCN1CCN(C2=Nc3ccccc3Sc3ccccc32)CC1 [Quetiapine-a-2-NB590] | 0.99 | 1.17 | –
17 | Cc1nc2n(c(=O)c1CCN1CCC(c3noc4cc(F)ccc34)CC1)CCCC2OC(=O)NCCOCCOCCOCCOCCNC(=O)CCc1ccc2n1[B-](F)(F)[N+]1=C(c3ccc[nH]3)C=CC1=C2 (centres unmarked) [Risperidone-2-NB590] | 1.26 | 2.15 | –
18 | CC(C)N(CC[C@H](c1ccccc1)c1cc(CCNC(=O)CCOCCOCCOCCOCCNC(=O)CCc2ccc3n2[B-](F)(F)[N+]2=C(c4ccc[nH]4)C=CC2=C3)ccc1O)C(C)C [Tolterodine-2-NB590] | 1.09 | 1.01 | –
19 | CC(C)N(CC[C@H](c1ccccc1)c1cc(CCNC(=O)c2ccc(CNC(=O)CCc3ccc4n3[B-](F)(F)[N+]3=C(c5ccc[nH]5)C=CC3=C4)cc2)ccc1O)C(C)C [Tolterodine-BZ-NB590] | 0.86 | 1.55 | –
20 | CCCn1c(=O)c2[nH]c(-c3ccc(OCC(=O)NCCNC(=O)CCOCCNC(=O)c4ccc(CNC(=O)CCc5ccc6n5[B-](F)(F)[N+]5=C(c7ccc[nH]7)C=CC5=C6)cc4)cc3)nc2n(CCC)c1=O [XAC-3-NB590] | 1.45 | 0.88 | –
